# According to patent US20200022998A1, “MEDICAL USE OF NOTCH4 OR INHIBITORS THEREOF” (BEIJING INSTITUTE OF GENOMICS, CHINESE ACADEMY OF SCIENCES, priority 2016, published 2020):
# Assays:
# normal iPSC BC1 = experiment: in vitro megakaryocyte lineage differentiation of iPSC BC1 (spin-EB), flow cytometry at Day 14; format: cell-based, human
# Protocol: BC1 cell line was cultured in E8 medium, under the culture condition of 37° C., 5% CO2, and was passaged at (1:5)-(1:10) every 3-4 days depending on the concentration of cells. The cells were incubated in 0.5 mM EDTA, at room temperature for 2 min, and then were re-suspended and split up and down with E8 medium, and transferred to a culture dish that had been coated with Vitronectin one hour before.
# During differentiation, spin-embryoid body (spin-EB) method was used (Ng E S, Davis R, Stanley E G, Elefanty A G, A protocol describing the use of a recombinant protein-based, animal product-free medium (APEL) for human embryonic stem cell differentiation as spin embryoid bodies, Nat Protoc. 2008; 3(5): 768-76.). At Day 0 (D0) after differentiation, iPSCs reached a confluence of above 85% (confluence refers to the percentage of the surface of a culture dish that is covered by adherent cells). After digestion with Accutase at 37° C. for 3 min, the cells were neutralized and split in SFM medium (50% IMDM, 50% Ham's F12, and the added reagents and factors including: human albumin, monothioglycerol, Glutamax, Chemically Defined Lipid Concentrate, L-Ascorbic acid 2-phosphate sesquimagnesium salt hydrate, ITS-X), counted, and centrifuged. After the cells were re-suspended in SFM, cytokines, i.e. 10 μM ROCK inhibitor (Rho-associated protein kinase inhibitor), 10 ng/ml bFGF, and 10 ng/ml BMP4, were added. Cells were seeded to a round-bottom 96-well plate, at 3000 or 5000 cells/50 μl for each well (3000 or 5000 cells were seeded to each well, in a volume of 50 μl for each well). At Day 2, 50 μl SFM medium+10 ng/ml bFGF+10 ng/ml BMP4+100 ng/ml SCF+20 ng/ml VEGF was added to each well. At Day 5, Day 8, and Day 11, 50 μl SFM medium+10 ng/ml bFGF+10 ng/ml BMP4+50 ng/ml SCF+10 ng/ml VEGF was added to each well, wherein 100 μl old medium was pipetted off at Day 8, and 10 ng/ml thrombopoietin (TPO) was added to each well at Day 11.
# At Day 14 (D14), single cells (suspending cells) surrounding embryoid bodies (EBs) were collected. The cells were used in the following flow cytometry.
# The cell surface markers (CD34, CD45, CD41, CD42) of the collected cells were detected by flow cytometer. The assay was as followed.
# The detection was carried out in four tubes: the first tube was a negative tube that was not labeled with any flow antibody; the second tube was labelled with two antibodies CD34-APC and CD45-PE; the third tube was labeled with CD34-APC and CD41-PE; and the fourth tube was labeled with CD41-PE and CD42-APC, wherein CD34^+CD45^+represented the population of hematopoietic stem/progenitor cells (HSPCs), CD34^+CD41^+ represented the population of megakaryocyte progenitor cells (MKPs), and CD41^+CD42^+ represented the population of mature megakaryocytes (MKs).
# (1) The BC1 cell line used was the same as the one used in Example 1, and was divided into three groups, wherein two 96-well plates were used for each group, and the cells were seeded at 5000 cells/50 μl to each well. In vitro differentiation was carried out by reference to the steps in Example 1, wherein the step of adding a drug was carried out in accordance with the following steps in I-III groups:
# I. At Day 0 after differentiation, 10 μM RO4929097 was added, and DMSO was added to the control well.
# III. At Day 2 after differentiation, 10 μM RO4929097, 10 μM L-685458, and 10 μM DAPT were added, respectively; in addition, at Day 5 after differentiation, 10 μM RO4929097, 10 μM L-685458, and 10 μM DAPT were added, respectively.
# (2) The cells were collected for flow cytometry analysis, and as to the steps, please refer to the Example 1 above. […]
# I. At Day 0 after differentiation, 10 μM RO4929097, and 10 μM DAPT were added, respectively.
# II. At Day 2 after differentiation, 10 μM RO4929097, and 10 μM DAPT were added, respectively.
# III. At Day 5 after differentiation, 10 μM RO4929097, and 10 μM DAPT were added, respectively.
# IV. […]
# [1] = tested on: umbilical cord blood-derived CD34+ cells; experiment: in vitro megakaryocyte lineage differentiation of umbilical cord blood-derived CD34+ cells, flow cytometry; format: cell-based, human; settings: 10 μM; cells collected at D14; FIG. 14
# Protocol: (1) CD34^+ cells in umbilical cord blood were obtained by Ficoll-Paque PLUS density gradient centrifugation and magnetic bead sorting using CD34 MicroBead Kit. As to the particular steps, please refer to (GE Healthcare Life Sciences, http://www.gelifesciences.com), (Miltenyi Biotec, http://www.miltenyibiotec.com.cn).
# (2) Differentiation of umbilical cord blood-derived CD34^+ cells into megakaryocytes: umbilical cord blood-derived CD34^+ cells were counted, and seeded at 1*10^6 cells to 4 ml StemSpan™ SFEM 11+50 ng/ml SCF+50 ng/ml TPO+50 ng/ml IL-6+20 ng/ml IL-3 in a 12-well plate, with 1 ml medium for each well, and four wells in total, to which 10 μM R04929097, 10 μM L-685458, 10 μM DAPT, and the same volume of DMSO as control were added, respectively, and the time was recorded as Day 0. The liquid was changed every 3 days, and the culture condition was 37° C., 5% CO2. After incubation for 6 days, the cell density was high, and the cells in each well were divided into two wells of a 12-well plate, with 2 ml medium for each well. The inhibitors were added at the same concnetrations as described above. The cells were collected at D14, counted, and detected for cell surface markers (CD41, CD42, CD61) by flow cytometer.
# As to the collection of umbilical cord blood-derived CD34^+ cells, in vitro megakaryocytic differentiation and detection, please refer to Example 4-1.
smiles,measurement,setting,value
CC(C)C[C@H](NC(=O)[C@H](Cc1ccccc1)C[C@@H](O)[C@H](Cc1ccccc1)NC(=O)OC(C)(C)C)C(=O)N[C@@H](Cc1ccccc1)C(N)=O [L-685458],increase of proportion of mature megakaryocytes produced vs DMSO control,"normal iPSC BC1; 5 μM added at Day 2, FIG. 6",21%
same,decrease of proportion of HSPCs (CD34+CD45+) vs DMSO control,"normal iPSC BC1; 10 μM added at Day 2, FIG. 7A",27%
same,"proportion of MKPs (CD34+CD41+) produced, increased fold vs DMSO control (set as 1)","normal iPSC BC1; 10 μM added at Day 2, FIG. 7A",about 1.5 folds
same,"proportion of mature megakaryocytes MKs (CD41+CD42+) produced, increased fold vs DMSO control (set as 1)","normal iPSC BC1; 10 μM added at Day 2, FIG. 7A",about 2.3 folds
same,"proportion of HSPCs produced, increased fold vs DMSO control (set as 1)","normal iPSC BC1; 10 μM added at Day 5, FIG. 7B",about 1.5 folds
same,"proportion of MKPs produced, increased fold vs DMSO control (set as 1)","normal iPSC BC1; 10 μM added at Day 5, FIG. 7B",about 1.2 folds
same,"proportion of mature megakaryocytes MKs produced, increased fold vs DMSO control (set as 1)","normal iPSC BC1; 10 μM added at Day 5, FIG. 7B",about 3.8 folds
same,"total number of hematopoietic cells, increase vs control group","normal iPSC BC1; 10 μM added at Day 5, FIG. 7B",2.3 folds
same,production of megakaryocyte progenitor cells and/or mature megakaryocytes in vitro,normal iPSC BC1; screen in the in vitro differentiation system of stem cells,significantly promote
same,"proportion of mature megakaryocyte (CD61+), increase vs control group",[1],2.4 folds
same,"proportion of mature megakaryocytes MK (CD41+CD42+) produced, increase vs control group",[1],2.3 folds
